Like-named read-outs stand apart in the source and are kept apart here.
Assays:
[1] = biological target: T1, Drosophila OR71a (Drosophila melanogaster, UniProt Q9VUK5); test: Calcium ion fluorescence (GCaMP6) assay, OR71a stable HEK293 cell line; format: cell-based; conditions: for activation at 1 µM / activation at 10 µM / activation at 100 µM: HEK293, read-out: OR71a response (VUAA1-normalized response); for Average response: VUAA1-normalized response, mean of biological replicates; for OR71a Average response (VUAA1-normalized): 50 μM VUAA1 = 1
T1 construct: expressed in transfected cells
T1 sequence (Q9VUK5 1-378): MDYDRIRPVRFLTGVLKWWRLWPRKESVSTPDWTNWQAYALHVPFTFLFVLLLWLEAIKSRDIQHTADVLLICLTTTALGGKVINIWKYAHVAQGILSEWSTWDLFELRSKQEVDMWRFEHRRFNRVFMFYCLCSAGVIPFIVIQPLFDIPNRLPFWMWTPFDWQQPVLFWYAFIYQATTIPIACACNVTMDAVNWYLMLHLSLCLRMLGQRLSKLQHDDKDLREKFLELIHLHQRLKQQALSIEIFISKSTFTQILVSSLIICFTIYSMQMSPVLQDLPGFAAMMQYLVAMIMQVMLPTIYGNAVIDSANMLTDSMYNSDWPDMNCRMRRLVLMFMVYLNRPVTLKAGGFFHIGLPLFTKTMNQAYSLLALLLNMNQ
T1 sequence (Q9VNB5 1-486 partner): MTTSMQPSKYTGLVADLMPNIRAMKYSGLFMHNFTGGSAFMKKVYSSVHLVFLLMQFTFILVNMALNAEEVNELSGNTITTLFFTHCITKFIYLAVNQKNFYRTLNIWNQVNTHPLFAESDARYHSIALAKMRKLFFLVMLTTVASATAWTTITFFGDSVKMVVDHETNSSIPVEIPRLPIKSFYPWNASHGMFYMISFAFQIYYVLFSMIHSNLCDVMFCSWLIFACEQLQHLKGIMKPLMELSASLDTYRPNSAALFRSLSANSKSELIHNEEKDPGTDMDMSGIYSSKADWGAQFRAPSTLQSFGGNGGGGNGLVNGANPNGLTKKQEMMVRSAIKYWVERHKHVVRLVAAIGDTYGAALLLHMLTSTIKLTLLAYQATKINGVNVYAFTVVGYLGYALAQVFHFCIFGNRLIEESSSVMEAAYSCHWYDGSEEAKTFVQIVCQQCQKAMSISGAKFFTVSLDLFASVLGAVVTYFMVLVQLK
How it was run: (§1)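 HEK293 lines stably expressing each Drosophila OR with GCaMP6, doxycycline-induced (1 μg/mL) 48 or 72 h. Fluorescence recorded 5 s baseline then 30 s after VOC injection at pH 7.3; ΔF=(FMAX−F0)/F0, normalized to 50 µM VUAA1 response per line, triplicate wells averaged; concentration series 0.01–100 μM.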

[2] = biological target: T2, Drosophila OR13a (Drosophila melanogaster, UniProt Q9VXL0); test: Calcium ion fluorescence (GCaMP6) assay, OR13a stable HEK293 cell line; format: cell-based
T2 construct: expressed in transfected cells
T2 sequence (Q9VXL0 1-418): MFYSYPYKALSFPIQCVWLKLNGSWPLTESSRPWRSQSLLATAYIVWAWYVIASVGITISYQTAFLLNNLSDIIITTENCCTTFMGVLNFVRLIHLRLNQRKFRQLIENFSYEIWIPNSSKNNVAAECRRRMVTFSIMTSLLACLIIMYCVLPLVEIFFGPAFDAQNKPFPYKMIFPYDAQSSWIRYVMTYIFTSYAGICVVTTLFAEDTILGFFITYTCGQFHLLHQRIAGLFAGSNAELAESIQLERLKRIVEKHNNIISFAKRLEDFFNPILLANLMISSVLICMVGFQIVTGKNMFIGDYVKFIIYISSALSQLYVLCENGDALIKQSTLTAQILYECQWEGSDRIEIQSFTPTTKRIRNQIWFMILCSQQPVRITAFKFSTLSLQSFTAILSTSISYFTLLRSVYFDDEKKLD
T2 sequence (Q9VNB5 1-486 partner): T1 sequence (Q9VNB5 1-486 partner)
How it was run: as §1

[3] = ligand concentration 1 (unit not given), threshold 0.05, below shown as 0
[4] = ligand concentration 10 (unit not given), threshold 0.05, below shown as 0
[5] = ligand concentration 100 (unit not given), threshold 0.05, below shown as 0
[6] = HEK293, read-out: OR13a Average response (VUAA1-normalized), 1 μM VOC, 50 μM VUAA1 = 1, responses not exceeding 0.05 considered 0
[7] = HEK293, read-out: OR13a Average response (VUAA1-normalized), 10 μM VOC, 50 μM VUAA1 = 1, responses not exceeding 0.05 considered 0
[8] = HEK293, read-out: OR13a Average response (VUAA1-normalized), 100 μM VOC, 50 μM VUAA1 = 1, responses not exceeding 0.05 considered 0
[9] = HEK293, read-out: OR13a response (VUAA1-normalized response), VOC concentration 1 μM
[10] = HEK293, read-out: OR13a response (VUAA1-normalized response), VOC concentration 10 μM
[11] = HEK293, read-out: OR13a response (VUAA1-normalized response), VOC concentration 100 μM
[12] = concentration 1, normalized fluorescence change, values below 0.05 threshold given as 0
[13] = concentration 10, normalized fluorescence change, values below 0.05 threshold given as 0
[14] = concentration 100, normalized fluorescence change, values below 0.05 threshold given as 0
[15] = ligand concentration 1 (unit not given), 0.05 threshold, values below shown as 0
[16] = ligand concentration 10 (unit not given), 0.05 threshold, values below shown as 0
[17] = ligand concentration 100 (unit not given), 0.05 threshold, values below shown as 0

Row | Compound | activation at 1 µM [1] [%] | activation at 10 µM [1] [%] | activation at 100 µM [1] [%] | Average response ([1]; OR71a cell line, cc. 1 µM) | Average response ([1]; OR71a cell line, cc. 10 µM) | Average response ([1]; OR71a cell line, cc. 100 µM) | DF norm AVERAGE OR71a [1, 3] | DF norm AVERAGE OR71a [1, 4] | DF norm AVERAGE OR71a [1, 5] | activation at 1 µM [2, 6] [%] | activation at 10 µM [2, 7] [%] | activation at 100 µM [2, 8] [%] | activation at 1 µM [2, 9] [%] | activation at 10 µM [2, 10] [%] | activation at 100 µM [2, 11] [%] | DF norm AVERAGE OR13a [2, 3] | DF norm AVERAGE OR13a [2, 4] | DF norm AVERAGE OR13a [2, 5] | DF norm AVERAGE OR71a [1, 12] | DF norm AVERAGE OR71a [1, 13] | other results
1 | CC(=O)c1ccccc1 [acetophenone] | 0 | 0 | 0 | 0.00 | 0.00 | 0.00 | 0 | 0 | 0 | 0 | 0 | 0 | 0 | 0 | 0 | 0 | 0 | 0 | – | – | –
2 | CCCCCC(C)=O [2-heptanone] | 8 | 12 | 5 | 0.08 | 0.12 | 0.05 | – | – | – | 0 | 2.36 | 1.75 | 0 | 0 | 0 | – | – | – | 0.08012 | 0.1157 | DF norm AVERAGE OR71a [1, 14]: 0.05175; DF norm AVERAGE OR13a [2, 12]: 0; DF norm AVERAGE OR13a [2, 13]: 0; DF norm AVERAGE OR13a [2, 14]: 0
3 | CCCCOC(=O)CC [butyl propanoate] | 0 | 0 | 0 | 0.00 | 0.00 | 0.03 | 0 | 0 | 0 | 0 | 0 | 0 | 0 | 0 | 0 | 0 | 0 | 0 | – | – | –
4 | CCCCCCCCCCCCCC [tetradecane] | – | – | – | 0.0218 | 0.0215 | 0.0462 | – | – | – | 2.63 | 1.68 | 0 | – | – | – | – | – | – | – | – | OR71a response (VUAA1-normalized) at 1 μM ([1]; OR71a cell line, VOC concentration 1 μM): 0.00; OR71a response (VUAA1-normalized) at 10 μM ([1]; OR71a cell line, VOC concentration 10 μM): 0.00; OR71a response (VUAA1-normalized) at 100 μM ([1]; OR71a cell line, VOC concentration 100 μM): 0.00; DF norm AVERAGE OR71a [1, 15]: 0; DF norm AVERAGE OR71a [1, 16]: 0; DF norm AVERAGE OR71a [1, 17]: 0; OR13a response (VUAA1-normalized) at 1 μM ([2]; OR13a cell line, VOC concentration 1 μM): 0.00; OR13a response (VUAA1-normalized) at 10 μM ([2]; OR13a cell line, VOC concentration 10 μM): 0.00; OR13a response (VUAA1-normalized) at 100 μM ([2]; OR13a cell line, VOC concentration 100 μM): 0.00; DF norm AVERAGE OR13a [2, 15]: 0; DF norm AVERAGE OR13a [2, 16]: 0; DF norm AVERAGE OR13a [2, 17]: 0
5 | CCCCCC(=O)OCC [ethyl hexanoate] | 0 | 0 | 0 | 0.0156 | 0.0153 | 0.00 | 0 | 0 | 0 | 3.2 | 2.46 | 0 | 0 | 0 | 0 | 0 | 0 | 0 | – | – | –
6 | CCOC(=O)c1ccccc1 [ethyl benzoate] | 0 | 5.54 | 11 | 0.04 | 0.0554 | 0.11 | 0 | 0.05543 | 0.1075 | 1.69 | 2.64 | 1.67 | 0 | 0 | 0 | 0 | 0 | 0 | – | – | OR71a Average response (VUAA1-normalized) ([1]; 1 μM VOC): 0.04; OR71a Average response (VUAA1-normalized) ([1]; 10 μM VOC): 0.06; OR71a Average response (VUAA1-normalized) ([1]; 100 μM VOC): 0.11
7 | CC1=CCC2C(C1)C2(C)C (stereo not drawn) [3-carene] | 0 | 0 | 0 | 0.00 | 0.00 | 0.00 | – | – | – | 0 | 0 | 0 | 0 | 0 | 0 | – | – | – | 0 | 0 | DF norm AVERAGE OR71a [1, 14]: 0; DF norm AVERAGE OR13a [2, 12]: 0; DF norm AVERAGE OR13a [2, 13]: 0; DF norm AVERAGE OR13a [2, 14]: 0
8 | (+)-beta-cedrene | – | – | – | 0.0243 | 0.03 | 0.00 | – | – | – | – | – | – | – | – | – | – | – | – | 0 | 0 | OR71a response (VUAA1-normalized response) ([1]; VOC concentration 1 μM): 0.00; OR71a response (VUAA1-normalized response) ([1]; VOC concentration 10 μM): 0.00; OR71a response (VUAA1-normalized response) ([1]; VOC concentration 100 μM): 0.00; DF norm AVERAGE OR71a [1, 14]: 0; OR13a Average response (VUAA1-normalized) ([2]; 1 μM VOC, 50 μM VUAA1 = 1, responses not exceeding 0.05 considered 0): 0.00; OR13a Average response (VUAA1-normalized) ([2]; 10 μM VOC, 50 μM VUAA1 = 1, responses not exceeding 0.05 considered 0): 0.00; OR13a Average response (VUAA1-normalized) ([2]; 100 μM VOC, 50 μM VUAA1 = 1, responses not exceeding 0.05 considered 0): 0.00; OR13a response (VUAA1-normalized response) ([2]; VOC concentration 1 μM): 0.00; OR13a response (VUAA1-normalized response) ([2]; VOC concentration 10 μM): 0.00; OR13a response (VUAA1-normalized response) ([2]; VOC concentration 100 μM): 0.00; DF norm AVERAGE OR13a [2, 12]: 0; DF norm AVERAGE OR13a [2, 13]: 0; DF norm AVERAGE OR13a [2, 14]: 0
9 | CCCCOC(C)=O [butyl acetate] | 0 | 0 | 0 | 0.00 | 0.00 | 0.0132 | 0 | 0 | 0 | 0 | 0 | 1.56 | 0 | 0 | 0 | 0 | 0 | 0 | – | – | –

— paper PMC10709440, “High-throughput ligand profile characterization in novel cell lines expressing seven heterologous insect olfactory receptors for the detection of volatile plant biomarkers” (Scientific Reports, 2023)
